The results in this text go back to patent US10399940B2, “Substituted pyrrolidines and methods of use” (AbbVie S.à.r.l., priority 2016, dated 2019).

By EC50 is commonly meant the concentration giving half of the maximal effect.

Where two headings read alike, the source gives them in different places.

For this experiment, the target named is T1, F508delCFTR (Homo sapiens, UniProt P13569, DEL508-508).
T1 construct: expressed in transfected cells; host or cells: CFBE41o- (human lung derived epithelial cell line), doxycycline-inducible expression
The experiment can be described thus: Cell Surface Expression-Horse Radish Peroxidase (CSE-HRP) assay. Format: cell-based. The settings on record: CFBE41o-F508delCFTR-HRP cells; for Maximum % activity (with co-corrector): with co-corrector (2 μM); for Maximum % activity (with co-corrector) / Maximum % activity (without co-corrector): normalized to on-plate positive control, highest concentration 20 μM. In a few lines: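 CFBE41o- cells expressed F508delCFTR with HRP in the fourth exofacial loop, induced by 0.5 μg/mL doxycycline for 72 h at 37 °C. Compounds alone or with 2 μM co-corrector ran 18–24 h at 33 °C, 8-point 3-fold from 20 μM. Washed-cell luminol luminescence was normalized to DMSO and positive control, fitted sigmoidally for EC50 (three plates).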

[1] abbreviates: test compound without co-corrector, 18-24 hours at 33° C., read-out: EC50 (without co-corrector).
Where [2] appears, read: with co-corrector (2 μM of 3-[(2R,4R)-4-({[1-(2,2-difluoro-1,3-benzodioxol-5-yl)cyclopropyl]carbonyl}amino)-7-methoxy-3,4-dihydro-2H-chromen-2-yl]benzoic acid), read-out: EC50 (with co-corrector).

T1 sequence (P13569 with tags, fused parts or gaps DEL508-508): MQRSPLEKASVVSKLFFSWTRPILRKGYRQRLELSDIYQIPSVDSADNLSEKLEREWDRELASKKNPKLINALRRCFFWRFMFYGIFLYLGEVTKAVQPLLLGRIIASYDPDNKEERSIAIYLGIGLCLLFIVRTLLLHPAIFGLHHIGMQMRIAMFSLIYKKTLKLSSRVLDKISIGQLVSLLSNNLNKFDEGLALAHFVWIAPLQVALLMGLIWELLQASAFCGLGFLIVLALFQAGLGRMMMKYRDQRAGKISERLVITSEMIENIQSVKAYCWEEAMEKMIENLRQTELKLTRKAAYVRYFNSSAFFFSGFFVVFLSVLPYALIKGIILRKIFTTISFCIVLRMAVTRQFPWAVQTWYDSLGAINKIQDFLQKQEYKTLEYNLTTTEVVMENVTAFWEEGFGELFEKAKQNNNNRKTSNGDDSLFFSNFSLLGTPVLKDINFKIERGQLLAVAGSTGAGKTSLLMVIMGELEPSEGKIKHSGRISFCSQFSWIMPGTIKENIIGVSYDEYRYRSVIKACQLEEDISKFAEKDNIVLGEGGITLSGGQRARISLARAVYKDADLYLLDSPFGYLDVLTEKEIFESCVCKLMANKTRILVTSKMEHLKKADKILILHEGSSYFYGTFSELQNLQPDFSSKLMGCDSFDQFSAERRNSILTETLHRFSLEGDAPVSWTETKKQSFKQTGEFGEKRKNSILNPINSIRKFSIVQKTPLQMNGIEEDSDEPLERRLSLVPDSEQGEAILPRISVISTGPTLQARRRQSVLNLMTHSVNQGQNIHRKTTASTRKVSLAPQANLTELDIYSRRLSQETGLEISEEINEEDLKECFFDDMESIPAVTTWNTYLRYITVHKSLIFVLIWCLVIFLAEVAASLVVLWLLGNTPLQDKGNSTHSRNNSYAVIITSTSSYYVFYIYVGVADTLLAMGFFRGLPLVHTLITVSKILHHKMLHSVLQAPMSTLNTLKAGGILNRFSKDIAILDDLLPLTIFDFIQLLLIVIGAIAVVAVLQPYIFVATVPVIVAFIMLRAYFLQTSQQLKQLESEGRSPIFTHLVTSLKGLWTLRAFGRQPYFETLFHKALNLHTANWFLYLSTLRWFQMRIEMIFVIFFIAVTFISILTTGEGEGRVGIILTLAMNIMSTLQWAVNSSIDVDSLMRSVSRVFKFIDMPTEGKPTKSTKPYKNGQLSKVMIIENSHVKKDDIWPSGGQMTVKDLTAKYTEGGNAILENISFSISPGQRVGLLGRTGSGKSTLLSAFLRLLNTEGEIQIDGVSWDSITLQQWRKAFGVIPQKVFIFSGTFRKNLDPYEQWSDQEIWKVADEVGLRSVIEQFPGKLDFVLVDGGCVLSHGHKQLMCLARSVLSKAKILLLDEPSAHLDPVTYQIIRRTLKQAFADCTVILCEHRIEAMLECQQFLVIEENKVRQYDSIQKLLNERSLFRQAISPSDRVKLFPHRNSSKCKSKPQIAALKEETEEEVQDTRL

For the molecule `COc1ncc(C(F)(F)F)cc1CO[C@H]1[C@H](C(C)(C)C)[C@@H](C(=O)O)N(C(=O)[C@@H]2CCCCO2)[C@H]1c1ccccc1Cl` [Example 103, (2S,3R,4S,5S)-3-tert-butyl-5-(2-chlorophenyl)-4-{[2-methoxy-5-(trifluoromethyl)pyridin-3-yl]methoxy}-1-[(2S)-oxane-2-carbonyl]pyrrolidine-2-carboxylic acid], the “Maximum % activity (with co-corrector)” value was “+++ (≥350)”; the “Maximum % activity (without co-corrector)” value is “++ (≥100 and <200)”. The EC50 under setting [1] lay within 1000 to 10000 nM. Further, the EC50 under setting [2] is less than 1000 nM.
As for `COc1nc2ccccc2cc1CO[C@H]1[C@H](C(C)(C)C)[C@@H](C(=O)O)N(C(=O)OC(C)C)[C@H]1c1ccccc1Br` [Example 137, (2S,3R,4S,5S)-5-(2-bromophenyl)-3-tert-butyl-4-[(2-methoxyquinolin-3-yl)methoxy]-1-{[(propan-2-yl)oxy]carbonyl}pyrrolidine-2-carboxylic acid], the “Maximum % activity (with co-corrector)” value is “++ (≥150 and <350)”; the “Maximum % activity (without co-corrector)” value is “++ (≥100 and <200)”. In addition, the EC50 under setting [1] was in the range of 1000 to 10000 nM. In addition, the EC50 under setting [2] was less than 1000 nM.
On to `COc1ccc(C(F)(F)F)cc1CO[C@@H]1[C@H](C(C)(C)C)[C@@H](C(=O)O)N(C(=O)[C@@H]2CCCO2)[C@H]1c1cccnc1C(F)(F)F` [Example 114, (2S,3R,4R,5S)-3-tert-butyl-4-{[2-methoxy-5-(trifluoromethyl)phenyl]methoxy}-1-[(2S)-oxolane-2-carbonyl]-5-[2-(trifluoromethyl)pyridin-3-yl]pyrrolidine-2-carboxylic acid], for which the “Maximum % activity (with co-corrector)” value was “+ (<150)” and the “Maximum % activity (without co-corrector)” value was “+ (<100)”. For the same molecule, the EC50 under setting [1] was more than 10000 nM. Further, under setting [2], the EC50 was more than 10000 nM.
As for `COc1cnc(C2CCC2)cc1CO[C@H]1[C@H](C(C)(C)C)[C@@H](C(=O)O)N(C(=O)OC(C)C)[C@H]1c1ccccc1` [Example 100, (2S,3R,4S,5S)-3-tert-butyl-4-[(2-cyclobutyl-5-methoxypyridin-4-yl)methoxy]-5-phenyl-1-{[(propan-2-yl)oxy]carbonyl}pyrrolidine-2-carboxylic acid], the “Maximum % activity (with co-corrector)” value is “++ (≥150 and <350)”; the “Maximum % activity (without co-corrector)” value was “+ (<100)”. The EC50 under setting [1] fell in the range of 1000 to 10000 nM. Moreover, the EC50 under setting [2] lay within 1000 to 10000 nM.
With `COc1ncc(C(F)(F)F)cc1CO[C@H]1[C@H](C(C)(C)C)[C@@H](C(=O)O)N(C(=O)[C@@H]2CCCCO2)[C@H]1c1ccccc1Br` [Example 178, (2S,3R,4S,5S)-5-(2-bromophenyl)-3-tert-butyl-4-{[2-methoxy-5-(trifluoromethyl)pyridin-3-yl]methoxy}-1-[(2S)-oxane-2-carbonyl]pyrrolidine-2-carboxylic acid], the “Maximum % activity (with co-corrector)” value is “+++ (≥350)”; the “Maximum % activity (without co-corrector)” value was “++ (≥100 and <200)”. For the same molecule, the EC50 under setting [1] was in the range of 1000 to 10000 nM. Further, the EC50 under setting [2] fell in the range of 1000 to 10000 nM.
On to `COc1ncc(C2CCC2)cc1CO[C@H]1[C@H](C(C)(C)C)[C@@H](C(=O)O)N(C(=O)[C@@H]2CCCCO2)[C@H]1c1ccccc1C` [Example 170, (2S,3R,4S,5S)-3-tert-butyl-4-[(5-cyclobutyl-2-methoxypyridin-3-yl)methoxy]-5-(2-methylphenyl)-1-[(2S)-oxane-2-carbonyl]pyrrolidine-2-carboxylic acid], for which the “Maximum % activity (with co-corrector)” value is “+++ (≥350)” and the “Maximum % activity (without co-corrector)” value was “+++ (≥200)”. The EC50 under setting [1] lay in the range of 1000 to 10000 nM. The EC50 under setting [2] was less than 1000 nM.
With `COc1ccc(C(F)(F)F)cc1CO[C@H]1[C@H](C(C)(C)C)[C@@H](C(=O)NS(C)(=O)=O)N(C(=O)C2CCCCC2)[C@H]1c1ccccc1` [Example 26, (2S,3R,4S,5S)-3-tert-butyl-1-(cyclohexanecarbonyl)-N-(methanesulfonyl)-4-{[2-methoxy-5-(trifluoromethyl)phenyl]methoxy}-5-phenylpyrrolidine-2-carboxamide], the “Maximum % activity (with co-corrector)” value is “++ (≥150 and <350)”; the “Maximum % activity (without co-corrector)” value is reported as “+ (<100)”. Under setting [1], the EC50 fell in the range of 1000 to 10000 nM. Also, the EC50 under setting [2] was 1000 to 10000 nM.
For `COc1ncc(C2CCC2)cc1CO[C@H]1[C@H](C(C)(C)C)[C@@H](C(=O)O)N(C(=O)O[C@H](C)C(F)(F)F)[C@H]1c1cccnc1OC(C)C` [Example 266, (2S,3R,4S,5S)-3-tert-butyl-4-[(5-cyclobutyl-2-methoxypyridin-3-yl)methoxy]-5-{2-[(propan-2-yl)oxy]pyridin-3-yl}-1-({[(2R)-1,1,1-trifluoropropan-2-yl]oxy}carbonyl)pyrrolidine-2-carboxylic acid], the “Maximum % activity (with co-corrector)” value is on record as “+++ (≥350)”; the “Maximum % activity (without co-corrector)” value was “++ (≥100 and <200)”. In addition, under setting [1], the EC50 lay within 1000 to 10000 nM. Under setting [2], the 50% effective concentration (EC50) was less than 1000 nM.
With `COc1ncc(C(F)(F)F)cc1CO[C@H]1[C@H](C(C)(C)C)[C@@H](C(=O)O)N(C(=O)[C@@H]2CCCO2)[C@H]1c1cccc(Cl)c1` [Example 119, (2S,3R,4S,5S)-3-tert-butyl-5-(3-chlorophenyl)-4-{[2-methoxy-5-(trifluoromethyl)pyridin-3-yl]methoxy}-1-[(2S)-oxolane-2-carbonyl]pyrrolidine-2-carboxylic acid], the “Maximum % activity (with co-corrector)” value is listed as “+++ (≥350)”; the “Maximum % activity (without co-corrector)” value was “++ (≥100 and <200)”. For the same molecule, under setting [1], the EC50 fell in the range of 1000 to 10000 nM. In addition, under setting [2], the EC50 was in the range of 1000 to 10000 nM.
In the case of `COc1ncc(C2CCC2)cc1CO[C@@H]1[C@H](C(C)(C)C)[C@@H](C(=O)O)N(C(=O)OC(C)C)[C@H]1c1ccccc1Br` [Example 166, (2S,3R,4R,5S)-5-(2-bromophenyl)-3-tert-butyl-4-[(5-cyclobutyl-2-methoxypyridin-3-yl)methoxy]-1-{[(propan-2-yl)oxy]carbonyl}pyrrolidine-2-carboxylic acid], the “Maximum % activity (with co-corrector)” value is on record as “+++ (≥350)” and the “Maximum % activity (without co-corrector)” value is given as “+ (<100)”. Further, the EC50 under setting [1] fell in the range of 1000 to 10000 nM. Further, under setting [2], the EC50 lay within 1000 to 10000 nM.
With `COc1ccc(C(F)(F)F)cc1C(CO[C@H]1[C@H](C(C)(C)C)[C@@H](C(=O)O)N(C(=O)[C@@H]2CCCCO2)[C@H]1c1ccccc1C)OC` (stereo partly drawn) [Example 269, (2S,3R,4S,5S)-3-tert-butyl-4-{2-methoxy-2-[2-methoxy-5-(trifluoromethyl)phenyl]ethoxy}-5-(2-methylphenyl)-1-[(2S)-oxane-2-carbonyl]pyrrolidine-2-carboxylic acid], the “Maximum % activity (with co-corrector)” value is reported as “+++ (≥350)” and the “Maximum % activity (without co-corrector)” value was “+++ (≥200)”. The EC50 under setting [1] was 1000 to 10000 nM. Besides, under setting [2], the EC50 was less than 1000 nM.
For `COc1ncc(N2CC(F)(F)C2)cc1CO[C@H]1[C@H](C(C)(C)C)[C@@H](C(=O)O)N(C(=O)OC(C)C)[C@H]1c1ccccc1` [Example 84, (2S,3R,4S,5S)-3-tert-butyl-4-{[5-(3,3-difluoroazetidin-1-yl)-2-methoxypyridin-3-yl]methoxy}-5-phenyl-1-{[(propan-2-yl)oxy]carbonyl}pyrrolidine-2-carboxylic acid], the “Maximum % activity (with co-corrector)” value is “++ (≥150 and <350)”; the “Maximum % activity (without co-corrector)” value is reported as “+ (<100)”. In addition, under setting [1], the EC50 was in the range of 1000 to 10000 nM. The EC50 under setting [2] fell in the range of 1000 to 10000 nM.
On to `COc1ncc(C(F)(F)F)cc1CO[C@H]1[C@H](C(C)(C)C)[C@@H](C(=O)O)N(C(=O)OC(C)C)[C@H]1c1ccccc1` [Example 64, (2S,3R,4S,5S)-3-tert-butyl-4-{[2-methoxy-5-(trifluoromethyl)pyridin-3-yl]methoxy}-5-phenyl-1-{[(propan-2-yl)oxy]carbonyl}pyrrolidine-2-carboxylic acid], for which the “Maximum % activity (with co-corrector)” value is recorded as “+++ (≥350)”; the “Maximum % activity (without co-corrector)” value was “++ (≥100 and <200)”. Under setting [1], the EC50 lay in the range of 1000 to 10000 nM. For the same molecule, the EC50 under setting [2] lay in the range of 1000 to 10000 nM.
In the case of `COc1cc(Cl)ccc1COC1[C@@H](c2ccccc2OC)N(C(=O)C2CCCCC2)[C@@H](C(=O)O)[C@@H]1C(C)(C)C` (mixture of isomers) [Example 14, rac-(2R,3S,5R)-3-tert-butyl-4-[(4-chloro-2-methoxyphenyl)methoxy]-1-(cyclohexanecarbonyl)-5-(2-methoxyphenyl)pyrrolidine-2-carboxylic acid], the “Maximum % activity (with co-corrector)” value was “+++ (≥350)”; the “Maximum % activity (without co-corrector)” value was “++ (≥100 and <200)”. Moreover, the EC50 under setting [1] lay within 1000 to 10000 nM. Besides, the EC50 under setting [2] fell in the range of 1000 to 10000 nM.
Take `COc1ncc(C2CCC2)cc1CO[C@H]1[C@H](C(C)(C)C)[C@@H](C(=O)O)N(C(=O)OC(C)C)[C@H]1c1cccc(Cl)c1` [Example 142, (2S,3R,4S,5S)-3-tert-butyl-5-(3-chlorophenyl)-4-[(5-cyclobutyl-2-methoxypyridin-3-yl)methoxy]-1-{[(propan-2-yl)oxy]carbonyl}pyrrolidine-2-carboxylic acid]: the “Maximum % activity (with co-corrector)” value is “++ (≥150 and <350)”; the “Maximum % activity (without co-corrector)” value was “+ (<100)”. Moreover, the EC50 under setting [1] is less than 1000 nM. Under setting [2], the EC50 was less than 1000 nM.
